According to US20080139449A1 (priority 2005, published 2008):

Experiments:
FPPS [1] = molecular target: T1, FPPS (Homo sapiens, UniProt P14324)
Target sequence in this assay (P14324 72-419): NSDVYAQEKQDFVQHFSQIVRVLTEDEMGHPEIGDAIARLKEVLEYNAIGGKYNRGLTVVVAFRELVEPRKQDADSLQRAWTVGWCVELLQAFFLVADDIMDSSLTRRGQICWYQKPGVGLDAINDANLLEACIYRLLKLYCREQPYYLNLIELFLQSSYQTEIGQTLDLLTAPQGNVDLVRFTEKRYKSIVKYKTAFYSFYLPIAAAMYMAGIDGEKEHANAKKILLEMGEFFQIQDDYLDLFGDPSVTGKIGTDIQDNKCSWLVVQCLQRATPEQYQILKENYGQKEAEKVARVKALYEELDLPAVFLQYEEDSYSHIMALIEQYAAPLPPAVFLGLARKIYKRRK

FPPS [2] = molecular target: T1, FPPS; settings: with respect to allylic substrates and IPP; cited from earlier work
Target sequence in this assay (P14324 whole entry): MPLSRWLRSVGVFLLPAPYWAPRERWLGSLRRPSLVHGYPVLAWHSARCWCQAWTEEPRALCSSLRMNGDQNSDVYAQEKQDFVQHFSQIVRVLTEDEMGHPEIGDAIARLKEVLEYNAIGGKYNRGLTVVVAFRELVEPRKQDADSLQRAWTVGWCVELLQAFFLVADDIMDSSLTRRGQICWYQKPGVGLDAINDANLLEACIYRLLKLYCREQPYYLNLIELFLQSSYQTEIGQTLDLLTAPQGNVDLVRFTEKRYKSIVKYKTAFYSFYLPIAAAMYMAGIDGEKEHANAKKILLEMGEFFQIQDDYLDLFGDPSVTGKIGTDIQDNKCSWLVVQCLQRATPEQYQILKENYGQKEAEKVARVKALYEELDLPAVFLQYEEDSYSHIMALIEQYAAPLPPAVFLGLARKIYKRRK

Compound: C=C(C)CCOP(=O)(O)OP(=O)(O)O [IPP, isopentenyl diphosphate]
- binding in the presence of zoledronate/Mg2+ (NMR) (FPPS [1]; IPP 400 μM added to FPPS/zoledronate/Mg2+ sample): binds to FPPS even in the presence of zoledronate

Compound: NCCCC(O)(P(=O)(O)O)P(=O)(O)O [alendronate]
- mode of FPPS inhibition (FPPS [2]): competitive with respect to allylic substrates but not IPP

Compound: NCCC(O)(P(=O)(O)O)P(=O)(O)O [pamidronate]
- chemical shift changes in 15N,1H-TROSY spectrum upon ligand addition (FPPS [1]; FPPS dimer 60 μM, pamidronate 270 μM, Mg2+ 900 μM): almost all of the non-overlapping resonances experience chemical shift changes
